Data set [1] deals with Transporter, Norepinephrine (NET) (Homo sapiens, UniProt P23975). The experiment in a line: Lead Profiling Screen, Eurofins Panlabs. Particulars: hum, read-out: % inh at 10 μM. The class given is binding.
Data set [2] is described as follows: Intrinsic clearance in rat liver microsomes. The class given is in vitro ADME. The procedure: Mean values for each species were calculated from 3 replicates.
Intrinsic Clearance in Rat and Human Liver Microsomes
The in vitro intrinsic clearance (CL int) was investigated in commercially obtained hepatic microsomes from rat and human donors using the substrate depletion (i.e., loss-of-parent vs. time, or t 1/2 method) approach with analyte detection via liquid chromatography-tandem mass spectrometry (LC-MS/MS). For each species, mean %parent remaining values at each time point were calculated from replicates raw data (analyte:IS peak area ratios) and used to determine in vitro t 1/2 and CLint.
Experiments were carried out using a robot-assisted (TECAN model Evo 200). Compound was incubated (1 µM final concentration) in buffer (100 mM potassium phosphate pH 7.4 with 3 mM MgCl2) containing hepatic microsomes (0.5 mg/mL final concentration) from multiple species, discretely, at 37 °C under constant orbital shaking. After 5 minutes (pre-incubation), reactions were initiated by addition of nicotinamide adenine dinucleotide phosphate (NADPH, 1 mM final concentration). At selected time intervals (0, 3, 7, 15, 25, and 45 minutes) post-addition of NADPH, aliquots (50 µL) were taken and placed into a 96-shallow-well plate containing ice cold acetonitrile (150 µL) with carbamazepine (IS, 50 nM). The plates were then centrifuged (3000 rcf at 4 °C) for 10 minutes. The supernatants were transferred to a new 96-shallow-well daughter plate and diluted (1:1 v/v) with water (Milli-Q filtered). The plates were then sealed in preparation for LC-MS/MS analysis (see below).
Raw LC-MS/MS peak area data generated from the assay samples were used to construct natural log-transformed %parent remaining vs. time plots (using t = 0 minute post-NADPH addition sample data as starting point set to 100%). In vitro compound half-life (t 1/2) values were obtained using the following […]
k is the slope from linear regression analysis of the natural log-transformed data (using means from Where all replicates at each time point). Resulting t 1/2 values were then used to calculate hepatic CLint values according to the following equation and with the use of species-specific scale-up factors for liver weight (grams) per total body weight (kg): […]
CLint = in vitro t1/2 x 0.5 mg microsomes x 1 gram liver x kg body wt aScale-up factors used are 45 (rat) and 20 (human).4
Predicted hepatic clearance (CLhep) was calculated using the following equation: […]
Qh represents hepatic blood flow (mL/min/kg): 21 for human, 70 for rat, and 90 for mouse.
Prepared samples were injected (10 µL each) onto an AB Sciex Triple Quad 4500 mass spectrometer system with an Agilent 1260 Infinity II pump and autosampler. Mass spectrometer conditions are described in Table S1. Quantitation of compounds was performed via AB Sciex Multiquant software using the raw analyte:IS peak area ratios. The typical detection range was 0.5 ng/mL to ≥ 5,000 ng/mL utilizing a quadratic equation regression with 1/x2 weighting.
Correction for dilution of all brain samples (in extraction buffer and subsequently in blank plasma, as previously described) was performed post-quantitation. The corrections for dilution in extraction buffer employed correction factors specific to each brain weight (not shown).
(Liver microsomes are a subcellular fraction often used to study metabolism.)

Another data set deals with T1, human mGlu5 (Homo sapiens, UniProt P41594).
T1 construct: expressed in transfected cells
T1 sequence (P41594 21-1212): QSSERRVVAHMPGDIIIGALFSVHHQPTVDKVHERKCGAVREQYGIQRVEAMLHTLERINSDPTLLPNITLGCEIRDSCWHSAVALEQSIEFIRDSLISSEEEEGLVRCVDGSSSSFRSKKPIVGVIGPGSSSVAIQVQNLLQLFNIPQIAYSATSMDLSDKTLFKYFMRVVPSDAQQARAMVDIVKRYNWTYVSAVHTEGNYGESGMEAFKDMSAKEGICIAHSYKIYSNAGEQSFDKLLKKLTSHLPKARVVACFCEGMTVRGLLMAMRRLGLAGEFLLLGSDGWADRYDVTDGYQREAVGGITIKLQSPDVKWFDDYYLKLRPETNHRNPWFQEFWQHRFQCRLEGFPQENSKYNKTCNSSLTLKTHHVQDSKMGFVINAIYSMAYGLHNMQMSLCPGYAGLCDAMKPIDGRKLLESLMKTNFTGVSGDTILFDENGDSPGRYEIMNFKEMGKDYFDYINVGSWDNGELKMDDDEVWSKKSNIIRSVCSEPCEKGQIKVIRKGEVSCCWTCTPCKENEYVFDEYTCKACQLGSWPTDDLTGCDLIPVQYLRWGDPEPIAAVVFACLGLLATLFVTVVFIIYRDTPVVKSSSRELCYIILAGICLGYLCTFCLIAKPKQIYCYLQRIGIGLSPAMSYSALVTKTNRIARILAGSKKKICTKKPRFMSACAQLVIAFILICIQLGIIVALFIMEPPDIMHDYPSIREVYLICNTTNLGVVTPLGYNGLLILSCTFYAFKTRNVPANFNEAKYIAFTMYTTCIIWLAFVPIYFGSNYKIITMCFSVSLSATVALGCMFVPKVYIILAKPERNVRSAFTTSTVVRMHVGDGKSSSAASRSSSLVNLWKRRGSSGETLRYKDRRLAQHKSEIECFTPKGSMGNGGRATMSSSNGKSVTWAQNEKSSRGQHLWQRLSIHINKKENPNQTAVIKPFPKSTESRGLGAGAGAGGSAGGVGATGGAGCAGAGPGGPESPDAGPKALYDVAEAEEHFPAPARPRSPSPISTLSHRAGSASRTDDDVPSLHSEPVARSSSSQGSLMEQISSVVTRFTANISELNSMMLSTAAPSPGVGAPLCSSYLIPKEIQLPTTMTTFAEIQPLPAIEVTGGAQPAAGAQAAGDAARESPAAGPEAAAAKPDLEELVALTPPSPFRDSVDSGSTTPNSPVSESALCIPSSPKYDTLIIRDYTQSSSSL
The experiment in a line: Calcium mobilization assay in human mGlu5-HEK293A cells (NAM, EC80 glutamate). The class given is cell-based.

Data set [3] in a line: In vivo dog pharmacokinetics. Conditions: Dog (beagle).
A further data set deals with Opiate κ (OP2, KOP) (Homo sapiens, UniProt P41145). The experiment in a line: Lead Profiling Screen, Eurofins Panlabs. The class given is binding. Particulars: hum, read-out: % inh at 10 μM.
Sequence of Opiate κ (OP2, KOP) (P41145 whole entry): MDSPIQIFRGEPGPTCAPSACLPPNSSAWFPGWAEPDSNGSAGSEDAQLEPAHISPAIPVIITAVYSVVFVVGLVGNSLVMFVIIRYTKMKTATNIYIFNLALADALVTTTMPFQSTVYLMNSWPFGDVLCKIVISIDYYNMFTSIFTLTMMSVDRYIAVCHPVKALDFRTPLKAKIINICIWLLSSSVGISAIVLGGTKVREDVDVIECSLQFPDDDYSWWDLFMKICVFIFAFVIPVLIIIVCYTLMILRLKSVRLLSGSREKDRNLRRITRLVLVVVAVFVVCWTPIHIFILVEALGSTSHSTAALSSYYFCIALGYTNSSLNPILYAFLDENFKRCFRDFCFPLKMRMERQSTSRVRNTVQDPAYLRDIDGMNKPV
In the next data set the target is Opiate δ1 (OP1, DOP) (Homo sapiens, UniProt P41143). The data set can be described thus: Lead Profiling Screen, Eurofins Panlabs. It is filed as binding. Conditions: hum, read-out: % inh at 10 μM.
Sequence of Opiate δ1 (OP1, DOP) (P41143 whole entry): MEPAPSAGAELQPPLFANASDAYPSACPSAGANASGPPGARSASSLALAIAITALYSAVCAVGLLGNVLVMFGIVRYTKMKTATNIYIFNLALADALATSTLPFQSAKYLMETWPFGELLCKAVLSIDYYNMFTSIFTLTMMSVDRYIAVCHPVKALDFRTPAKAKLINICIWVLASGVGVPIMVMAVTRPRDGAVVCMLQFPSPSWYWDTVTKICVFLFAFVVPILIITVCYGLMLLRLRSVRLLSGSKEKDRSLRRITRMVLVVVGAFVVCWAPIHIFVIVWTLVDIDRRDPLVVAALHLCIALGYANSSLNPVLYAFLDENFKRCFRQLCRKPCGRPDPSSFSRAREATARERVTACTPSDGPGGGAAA
The test system of a further data set is Phorbol Ester. The data set can be described thus: Lead Profiling Screen, Eurofins Panlabs. It is filed as binding. Particulars: mouse.
The test system of a further data set is Purinergic P2X. The experiment in a line: Lead Profiling Screen, Eurofins Panlabs. Conditions: rat. The class given is binding.
Data set [4] concerns the target Nicotinic Acetylcholine α3β4 (Homo sapiens, UniProt P30926+P32297). The data set can be described thus: Lead Profiling Screen, Eurofins Panlabs. The class given is binding. Particulars: Nicotinic Acetylcholine α3β4, hum, read-out: % inh at 10 μM.
In data set [5] the target is Serotonin (5-Hydroxytryptamine) 5-HT2B (Homo sapiens, UniProt P41595). The data set can be described thus: Lead Profiling Screen, Eurofins Panlabs. The class given is binding. Particulars: Serotonin 5-HT2B, hum, read-out: % inh at 10 μM.
Sequence of Serotonin (5-Hydroxytryptamine) 5-HT2B (P41595 whole entry): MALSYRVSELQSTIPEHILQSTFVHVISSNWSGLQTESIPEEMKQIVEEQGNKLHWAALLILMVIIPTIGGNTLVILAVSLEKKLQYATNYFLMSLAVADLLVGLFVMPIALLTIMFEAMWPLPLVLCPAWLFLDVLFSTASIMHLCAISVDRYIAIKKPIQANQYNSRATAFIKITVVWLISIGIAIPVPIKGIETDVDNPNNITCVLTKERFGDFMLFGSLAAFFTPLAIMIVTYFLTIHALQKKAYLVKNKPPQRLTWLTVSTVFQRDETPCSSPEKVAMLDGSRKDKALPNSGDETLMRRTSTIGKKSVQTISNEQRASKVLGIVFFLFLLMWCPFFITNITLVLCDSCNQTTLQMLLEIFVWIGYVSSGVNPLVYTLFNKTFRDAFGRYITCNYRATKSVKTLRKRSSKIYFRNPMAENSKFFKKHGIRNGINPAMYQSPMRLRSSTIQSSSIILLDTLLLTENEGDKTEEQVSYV

Sequence of Transporter, Norepinephrine (NET) (P23975 whole entry): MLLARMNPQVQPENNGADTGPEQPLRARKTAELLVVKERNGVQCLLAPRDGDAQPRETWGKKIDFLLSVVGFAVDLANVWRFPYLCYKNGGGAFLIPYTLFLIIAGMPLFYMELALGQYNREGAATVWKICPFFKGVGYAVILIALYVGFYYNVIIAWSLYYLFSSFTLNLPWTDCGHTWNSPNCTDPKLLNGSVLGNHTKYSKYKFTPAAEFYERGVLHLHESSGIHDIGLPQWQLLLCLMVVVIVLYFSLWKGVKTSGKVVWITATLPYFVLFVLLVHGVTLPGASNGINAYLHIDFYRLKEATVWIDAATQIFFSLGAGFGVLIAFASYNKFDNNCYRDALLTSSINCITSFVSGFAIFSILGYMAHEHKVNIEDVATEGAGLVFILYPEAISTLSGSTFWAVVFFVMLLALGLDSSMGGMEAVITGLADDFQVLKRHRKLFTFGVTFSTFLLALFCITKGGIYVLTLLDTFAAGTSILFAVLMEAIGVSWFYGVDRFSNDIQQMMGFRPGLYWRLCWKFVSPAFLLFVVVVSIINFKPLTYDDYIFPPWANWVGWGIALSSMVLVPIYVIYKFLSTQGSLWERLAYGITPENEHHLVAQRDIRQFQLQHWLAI
Sequence of Nicotinic Acetylcholine α3β4 (P32297 32-505): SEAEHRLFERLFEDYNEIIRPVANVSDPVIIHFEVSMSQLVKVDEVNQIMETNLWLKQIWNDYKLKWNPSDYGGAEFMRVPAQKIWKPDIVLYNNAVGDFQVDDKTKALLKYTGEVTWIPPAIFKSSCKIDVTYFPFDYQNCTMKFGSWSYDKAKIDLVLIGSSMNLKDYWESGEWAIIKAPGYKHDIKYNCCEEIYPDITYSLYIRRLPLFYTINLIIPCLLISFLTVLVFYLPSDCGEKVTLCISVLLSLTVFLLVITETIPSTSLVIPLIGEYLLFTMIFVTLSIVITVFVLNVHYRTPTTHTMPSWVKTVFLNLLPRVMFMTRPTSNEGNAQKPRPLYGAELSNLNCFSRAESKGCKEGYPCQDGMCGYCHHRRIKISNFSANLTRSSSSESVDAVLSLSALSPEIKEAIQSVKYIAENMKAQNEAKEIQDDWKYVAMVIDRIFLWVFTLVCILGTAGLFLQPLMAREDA
Sequence of Nicotinic Acetylcholine α3β4 (P30926 22-498): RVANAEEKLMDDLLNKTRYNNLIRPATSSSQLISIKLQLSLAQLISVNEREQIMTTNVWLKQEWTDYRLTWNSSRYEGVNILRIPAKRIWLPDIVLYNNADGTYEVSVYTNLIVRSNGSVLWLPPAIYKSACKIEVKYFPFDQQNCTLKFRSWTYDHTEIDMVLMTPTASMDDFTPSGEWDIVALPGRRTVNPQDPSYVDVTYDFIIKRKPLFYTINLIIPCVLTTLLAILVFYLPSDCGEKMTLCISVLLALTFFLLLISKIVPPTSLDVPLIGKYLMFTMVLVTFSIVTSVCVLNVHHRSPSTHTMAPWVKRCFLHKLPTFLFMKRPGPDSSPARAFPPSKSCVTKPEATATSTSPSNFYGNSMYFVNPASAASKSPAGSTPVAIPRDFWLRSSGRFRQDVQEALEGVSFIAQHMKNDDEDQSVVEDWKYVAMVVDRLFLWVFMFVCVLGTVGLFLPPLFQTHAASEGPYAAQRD

Broadly, the CLint scaled is a measure of how fast metabolising enzymes remove a compound, apart from limits set by blood flow. What is called pIC50 is the negative decadic logarithm of the IC50, by convention in mol/L. The IC50 is the midpoint of a concentration-inhibition curve. As a reminder, the MRT is a mean duration of stay, worked out from the concentration-time curve. For orientation: Vss means a proportionality between amount in the body and measured concentration, not a real space. Usually Cmax stands for the maximum level reached in the sampled fluid or tissue. Usually Tmax stands for the time at which the peak concentration occurs. For the compound `Cc1cc(Oc2cnn(C)c2)cc(C(=O)Nc2ccc(F)cn2)n1` [22iA], the inhibition at 10 µM in [1] was determined as 63%. In data set [2] (pH 7.4, rat liver microsomes), this compound returned a CLint scaled at 40 min, 1 µM of 48 mL/min/kg. Also, the “CLhep, rat” value in data set [2] (predicted hepatic clearance based on microsomal CLint) is reported as 28 mL/min/kg. At human mGlu5 (22fC vs 22bC, 22gA vs 22iA, 22iA vs 22hA, 22iB vs 22hB), the “fold increase in hmGlu5 potency” value is 1.6 fold. In addition, the “% GluMin” value on human mGlu5 (efficacy of the NAM to reduce an EC80 response of glutamate, human mGlu5-HEK293A cells) is listed as 2%. The negative logarithm of the IC50 (pIC50) on human mGlu5 (human mGlu5-HEK293A cells, EC80 fixed concentration of glutamate, n = 2 in triplicate) is listed as 6.49. The IC50 on human mGlu5 (human mGlu5-HEK293A cells, EC80 fixed concentration of glutamate, read-out: hmGlu5 IC50) turned out to be 325 nM. In data set [3] (IV 0.5 mg/kg), this compound gave a CLp of 38 mL/min/kg, a mean residence time MRT of 1.41 h, a volume of distribution (Vss) of 3.2 L/kg and a t1/2 of 1.55 h. Further, in [3] (PO 3.0 mg/kg), the “AUC0-∞” value is 264 ng·h/mL, the maximum concentration (Cmax) was determined as 70.3 ng/mL and the time of peak concentration (Tmax) turned out to be 0.67 h. Moreover, the “%F” value in data set [3] (PO 3.0 mg/kg, oral bioavailability) worked out at 20%. For the same compound, the inhibition at 10 µM at Opiate κ (OP2, KOP) was 2%. Also, the inhibition at 10 µM on Opiate δ1 (OP1, DOP) was determined as 3%. Moreover, the “% inh at 10 μM” value with Phorbol Ester is listed as -1%. In addition, in the data set on Purinergic P2X, the “% inh at 10 μM” value is listed as 15%. In [4], the inhibition at 10 µM is 6%. The inhibition at 10 µM in data set [5] was found to be 40%.

The record behind these values is article PMC11647725, “Discovery of 4-(5-Membered)Heteroarylether-6-methylpicolinamide Negative Allosteric Modulators of Metabotropic Glutamate Receptor Subtype 5” (ACS Medicinal Chemistry Letters, 2024).
